From BigSolDB 2.1

O=c1ccc(-c2ccccc2)n[nH]1
solubility (mole fraction)
Details	278.15 K	283.15 K	288.15 K	293.15 K	298.15 K	303.15 K	308.15 K	313.15 K	318.15 K
in ethanol	0.00242	0.00289	0.00342	0.00402	0.00466	0.00547	0.00637	0.00736	0.00846
in ethylene glycol	0.00304	0.00369	0.00445	0.00536	0.00646	0.0076	0.00905	0.0106	0.0124
in isopropanol	0.00411	0.00489	0.00579	0.00684	0.00795	0.0094	0.0109	0.0126	0.0142
in methanol	0.00124	0.00153	0.00183	0.0022	0.00265	0.00309	0.00365	0.00432	0.00502
in water	2.53e-06	3.14e-06	3.86e-06	4.72e-06	5.84e-06	7.08e-06	8.51e-06	1.02e-05	1.22e-05
